Source: patent EP0348399B1, “SORBIN AND PEPTIDE DERIVATIVES WHICH INCREASE ABORPTION BY THE MUCOUS MEMBRANES” (INSTITUT NATIONAL DE LA SANTE ET DE LA RECHERCHE MEDICALE …, priority 1988, dated 1992)

Assays:
[1] = tested on: rat; experiment: Water and electrolyte movements in ligated intestinal loops of the anaesthetised rat, peptides given by intravenous infusion; format: in vivo; conditions: rat duodenal loop, i.v. infusion, dose 50 pmol/100g, 1 h contact; controls (TEMOINS) = 0; (-) absorption, (+) secretion; mean, groups of 8 or more
Description: Chez le rat privé d'aliment depuis 45 heures mais recevant de l'eau à volonté, une anesthésie est assurée par le pentobarbital sodique, un cathéter est placé sur une jugulaire, trois anses duodénale, jéjunale et iléale sont constituées entre deux ligatures. Un ml de solution test contenant 70 mM de NaCl, 5,2 mM de KCl, […] de CaCl₂, 10 mM de CO₃Na ET 136 mM de mannitol est instillé dans chaque anse, le PEG 4000 marqué au ³H est utilisé comme marqueur non absorbable, le ²²Na ou le ³⁶Cl comme marqueurs des flux bidirectionnels de sodium ou de chlore. La sorbine ou les peptides de synthèse sont administrés par voie veineuse dans du NaCl à 0,9%, à un débit de 3 ml/h. Après une heure de contact, le liquide restant dans la lumière de l'anse est collecté, le volume et les concentrations de Na, Ca, K, Cl et HCO₃ ainsi que la radioactivité liée au tritium, au chlore ou au sodium sont mesurés.
L'absorption est indiquée par un signe (-), la sécrétion par un signe (+). les résultats concernent des groupes de 8 animaux ou plus M ± SEM ^. P<0.05 ^..P<0.01

[2] = Arterial blood pressure measured by carotid catheterisation; format: in vivo; conditions: measured by catheterisation of the carotid, result in words

Compound | Cl [1] | Eau [1] | Na [1] | tension artérielle [2]
HEPTAPEPTIDE | -36,1 µeq | -0,20 ml | -30,7 µeq | –
CC[C@H](C)[C@H](NC(=O)[C@H](Cc1ccc(O)cc1)NC(=O)[C@@H](NC(=O)[C@H](CCCNC(=N)N)NC(=O)[C@@H](N)CC(=O)O)C(C)C)C(=O)N[C@@H](Cc1cnc[nH]1)C(=O)N1CCC[C@H]1C(=O)N[C@@H](Cc1ccccc1)C(=O)O [ANGIOTENSINE II, angiotensine II] | – | – | – | augmentation de la tension artérielle
